Reference: ChEMBL document CHEMBL3217456 (Medchemcomm, 2014)
Active and inactive are the calls of the source. No cut-off for these calls is given here.

Assays:
[1] = molecular target: Histamine H1 receptor (Homo sapiens) (UniProt P35367); assay: (§1) Antagonist activity at human recombinant histamine H1 receptor expressed in Sf9 cells coexpressing RGS4 assessed as inhibition of histamine-induced […] hydrolysis preincubated for 2 mins before [gamma32P]GTP addition measured after 20 mins by steady-state GTPase activity assay; format: functional
Chain of Histamine H1 receptor (Homo sapiens) (P35367 whole entry, the tested form may be a part): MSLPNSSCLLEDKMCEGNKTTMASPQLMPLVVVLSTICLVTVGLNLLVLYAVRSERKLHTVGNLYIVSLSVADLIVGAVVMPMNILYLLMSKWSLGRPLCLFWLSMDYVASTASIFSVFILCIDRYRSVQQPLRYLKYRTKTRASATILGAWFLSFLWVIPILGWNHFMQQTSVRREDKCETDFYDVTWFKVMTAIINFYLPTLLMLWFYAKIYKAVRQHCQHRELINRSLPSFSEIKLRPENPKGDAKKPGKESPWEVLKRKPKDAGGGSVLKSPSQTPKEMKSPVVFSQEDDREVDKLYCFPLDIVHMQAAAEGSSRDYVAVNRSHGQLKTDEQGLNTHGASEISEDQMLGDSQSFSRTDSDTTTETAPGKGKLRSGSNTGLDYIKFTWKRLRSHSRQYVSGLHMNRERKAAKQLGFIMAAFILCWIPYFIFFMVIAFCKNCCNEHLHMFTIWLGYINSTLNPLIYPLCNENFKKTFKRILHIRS

[2] = molecular target: T1, Histamine H2 receptor (Homo sapiens, UniProt P25021); assay: Intrinsic activity at human recombinant histamine H2 receptor-Gsalphas fusion protein expressed in Sf9 cells assessed as [35S]GTPgammaS binding at 10 uM after 90 mins by liquid scintillation counting relative to histamine; format: functional
T1 sequence (P25021 whole entry, the tested form may be a part): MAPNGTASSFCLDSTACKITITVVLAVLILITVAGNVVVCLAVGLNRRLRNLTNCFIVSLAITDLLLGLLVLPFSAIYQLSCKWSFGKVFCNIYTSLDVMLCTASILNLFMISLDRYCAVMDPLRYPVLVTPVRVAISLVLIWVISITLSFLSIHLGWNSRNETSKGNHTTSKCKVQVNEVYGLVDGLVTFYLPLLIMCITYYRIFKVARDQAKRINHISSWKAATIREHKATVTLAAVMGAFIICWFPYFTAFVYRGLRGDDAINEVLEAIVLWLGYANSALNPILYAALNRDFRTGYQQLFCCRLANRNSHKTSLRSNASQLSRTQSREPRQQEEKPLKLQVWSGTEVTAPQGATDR

[3] = molecular target: T2, Histamine H3 receptor (Homo sapiens, UniProt Q9Y5N1); assay: Agonist activity at human recombinant histamine H3 receptor expressed in Sf9 cells coexpressing Galphai2,Gbeta1gamma2 and RGS4 assessed as [35S]GTPgammaS binding after 90 mins by liquid scintillation counting; format: functional
T2 sequence (Q9Y5N1 whole entry, the tested form may be a part): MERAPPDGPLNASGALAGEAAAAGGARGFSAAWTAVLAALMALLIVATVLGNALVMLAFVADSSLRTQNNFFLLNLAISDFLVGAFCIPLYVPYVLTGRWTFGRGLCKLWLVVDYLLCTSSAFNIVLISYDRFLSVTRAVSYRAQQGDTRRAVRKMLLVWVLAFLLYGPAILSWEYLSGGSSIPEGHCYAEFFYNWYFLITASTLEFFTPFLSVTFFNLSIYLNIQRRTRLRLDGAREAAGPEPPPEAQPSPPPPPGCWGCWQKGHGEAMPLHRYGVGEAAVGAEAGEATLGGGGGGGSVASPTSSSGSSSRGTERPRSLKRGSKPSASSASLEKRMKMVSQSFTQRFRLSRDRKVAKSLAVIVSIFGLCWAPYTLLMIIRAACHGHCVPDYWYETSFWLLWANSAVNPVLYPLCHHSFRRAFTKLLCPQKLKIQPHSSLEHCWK

[4] = molecular target: T1, Histamine H2 receptor; assay: Antagonist activity at human recombinant histamine H2 receptor-Gsalphas fusion protein expressed in Sf9 cells assessed as inhibition of histamine-induced [35S]GTPgammaS binding after 90 mins by liquid scintillation counting; format: functional
[5] = molecular target: T3, Histamine H4 receptor (Homo sapiens, UniProt Q9H3N8); assay: Agonist activity at human recombinant histamine H4 receptor-RGS19 fusion protein expressed in Sf9 cells coexpressing Galphai2,Gbeta1gamma2 assessed as [35S]GTPgammaS binding after 90 mins by liquid scintillation counting; format: functional
[6] = molecular target: Histamine H1 receptor (Homo sapiens) (UniProt P35367); assay: Intrinsic activity at human recombinant histamine H1 receptor expressed in Sf9 cells coexpressing RGS4 preincubated for 2 mins before [gamma32P]GTP addition measured after 20 mins by steady-state GTPase activity assay relative to histamine
[7] = molecular target: T2, Histamine H3 receptor; assay: Intrinsic activity at human recombinant histamine H3 receptor expressed in Sf9 cells coexpressing Galphai2,Gbeta1gamma2 and RGS4 preincubated for 2 mins before [gamma32P]GTP addition measured after 20 mins by steady-state GTPase activity assay relative to histamine
[8] = molecular target: T1, Histamine H2 receptor; assay: (§2) Antagonist activity at human recombinant histamine H2 receptor-Gsalphas fusion protein expressed in Sf9 cells assessed as inhibition of histamine-induced […] hydrolysis preincubated for 2 mins before [gamma32P]GTP addition measured after 20 mins by steady-state GTPase activity assay; format: functional
[9] = molecular target: T2, Histamine H3 receptor; assay: as §1, with “H3” for “H1”, “coexpressing Galphai2,Gbeta1gamma2 and” for “coexpressing”; format: functional
[10] = molecular target: T1, Histamine H2 receptor; assay: Intrinsic activity at human recombinant histamine H2 receptor-Gsalphas fusion protein expressed in Sf9 cells preincubated for 2 mins before [gamma32P]GTP addition measured after 20 mins by steady-state GTPase activity assay relative to histamine
[11] = molecular target: T3, Histamine H4 receptor; assay: Intrinsic activity at human recombinant histamine H4 receptor-RGS19 fusion protein expressed in Sf9 cells coexpressing Galphai2,Gbeta1gamma2 preincubated for 2 mins before [gamma32P]GTP addition measured after 20 mins by steady-state GTPase activity assay relative to histamine
[12] = molecular target: T3, Histamine H4 receptor; assay: as §2, with “H4 receptor-RGS19” for “H2 receptor-Gsalphas”, “cells coexpressing Galphai2,Gbeta1gamma2” for “cells”; format: functional
[13] = molecular target: T3, Histamine H4 receptor; assay: Intrinsic activity at human recombinant histamine H4 receptor-RGS19 fusion protein expressed in Sf9 cells coexpressing Galphai2,Gbeta1gamma2 assessed as [35S]GTPgammaS binding at 10 uM after 90 mins by liquid scintillation counting relative to histamine; format: functional
[14] = molecular target: T3, Histamine H4 receptor; assay: Antagonist activity at human recombinant histamine H4 receptor-RGS19 fusion protein expressed in Sf9 cells coexpressing Galphai2,Gbeta1gamma2 assessed as inhibition of histamine-induced [35S]GTPgammaS binding after 90 mins by liquid scintillation counting; format: functional
[15] = molecular target: T2, Histamine H3 receptor; assay: Antagonist activity at human recombinant histamine H3 receptor expressed in Sf9 cells coexpressing Galphai2,Gbeta1gamma2 and RGS4 assessed as inhibition of histamine-induced [35S]GTPgammaS binding after 90 mins by liquid scintillation counting; format: functional
[16] = molecular target: T2, Histamine H3 receptor; assay: Intrinsic activity at human recombinant histamine H3 receptor expressed in Sf9 cells coexpressing Galphai2,Gbeta1gamma2 and RGS4 assessed as [35S]GTPgammaS binding at 10 uM after 90 mins by liquid scintillation counting relative to histamine; format: functional
[17] = molecular target: Histamine H1 receptor (Homo sapiens) (UniProt P35367); conditions: Sf9

pKb [1] | Intrinsic activity [2] | pEC50 [3] | pKb [4] | pEC50 [5] | Intrinsic activity [6] | Intrinsic activity [7] | pKb [8] | pKb [9] | Intrinsic activity [10] | Intrinsic activity [11] | pKb [12] | Intrinsic activity [13] | pKb [14] | pKb [15] | Intrinsic activity [16] | EC50 [3] | EC50 [5] | pEC50 [17] | SMILES
< 5 | 0.03 | inactive | < 5 | inactive | 0.01 | – | – | – | – | – | – | – | – | – | – | – | – | – | N#C/N=C(\NCCCCc1nc(N)n[nH]1)NCCSc1ccccc1
5.07 | – | – | – | – | 0.04 | -0.33 | 6.13 | 5.47 | -0.04 | -0.08 | 5.85 | – | – | – | – | – | – | – | N/C(=N\C(=O)CC(c1ccccc1)c1ccccc1)NCCCc1ncc[nH]1
< 5 | -0.11 | – | < 5 | – | 0.01 | – | – | – | – | – | – | -0.09 | < 5 | 5.14 | -0.71 | – | – | – | N#C/N=C(/NCCCNc1nccc(N)n1)NCCSc1ccccc1
< 5.3 | -0.05 | – | < 5 | – | 0.03 | – | – | – | – | – | – | 0.4 | – | < 5 | -1.11 | – | 468 nM | – | Cc1nc(CCCN/C(=N\C#N)NCCSc2ccccc2)c[nH]1
– | – | – | – | – | – | -0.62 | 6.13 | 5.51 | -0.13 | – | < 5 | – | – | – | – | – | – | – | CN(C)Cc1ccc(CCCN/C(N)=N/C(=O)CC(c2ccccc2)c2nccs2)o1 (configuration not stated)
5.26 | – | – | – | – | -0.01 | -0.24 | 5.89 | 5.1 | -0.12 | – | < 5 | – | – | – | – | – | – | – | N/C(=N\C(=O)CC(c1ccccc1)c1ccccc1)NCCCc1ccccc1
< 5 | -0.13 | – | < 5 | – | -0.01 | – | – | – | – | – | – | -0.34 | < 5 | < 5 | -0.36 | – | – | – | N#C/N=C(/NCCCCNc1ccccn1)NCCSc1ccccc1
– | – | – | – | – | – | -0.73 | 6.51 | 5.77 | -0.12 | -0.14 | < 5 | – | – | – | – | – | – | – | CC(CC(=O)/N=C(\N)NCCCc1ccc(CN(C)C)o1)c1cccs1 (configuration not stated)
– | – | – | – | – | – | -0.46 | 5.19 | 5.28 | 0 | – | < 5 | – | – | – | – | – | – | – | N/C(=N\C(=O)CC(c1ccccc1)c1nccs1)NCCCc1ncc[nH]1 (configuration not stated)

Further lines, the compound ahead of its results:

SMILES | pKb [1] | Intrinsic activity [2] | pEC50 [3] | pKb [4] | pEC50 [5] | Intrinsic activity [6] | Intrinsic activity [7] | pKb [8] | pKb [9] | Intrinsic activity [10] | Intrinsic activity [11] | pKb [12] | Intrinsic activity [13] | pKb [14] | pKb [15] | Intrinsic activity [16] | EC50 [3] | EC50 [5] | pEC50 [17]
CN/C(=N/C#N)NCCCCc1nc[nH]c1C | < 5 | 0.04 | – | < 5 | – | -0.03 | – | – | – | – | – | – | 0.6 | – | – | 0.23 | 1070 nM | 3630 nM | –
CN/C(=N/C#N)NCCCc1c[nH]c(C)n1 | inactive | -0.02 | – | < 5 | – | inactive | – | – | – | – | – | – | 0.74 | – | < 5 | -0.52 | – | 550 nM | inactive
CN/C(=N\C#N)NCCCSc1nc(N)n[nH]1 | – | -0.02 | inactive | < 5 | inactive | – | – | – | – | – | – | – | – | – | – | – | – | – | inactive
N#C/N=C(\NCCCCc1cnn[nH]1)NCCSc1ccccc1 | < 5 | -0.04 | inactive | < 5 | inactive | -0.02 | – | – | – | – | – | – | – | – | – | – | – | – | –
CN/C(=N/C#N)NCCCCc1c[nH]c(C)n1 | < 5 | 0.04 | – | < 5 | – | 0.01 | – | – | – | – | – | – | -0.23 | < 5 | < 5 | -0.13 | – | – | –
N#C/N=C(/NCCCSc1nc(N)n[nH]1)NCCSc1ccccc1 | – | -0.05 | inactive | < 5 | inactive | – | – | – | – | – | – | – | – | – | – | – | – | – | inactive
N#C/N=C(\NCCCNc1nc(N)n[nH]1)NCCSc1ccccc1 | – | -0.01 | inactive | < 5 | inactive | – | – | – | – | – | – | – | – | – | – | – | – | – | inactive
